Data as given in patent publication US8697691B2, “Alkyl 3-((2-amidoethyl)amino)-8-azabicyclo[3.2.1]octane-8-carboxylate analogs as selective M1 agonists and methods of making and using same” (Vanderbilt University, priority 2009, dated 2014).

Tests used:
hM2 receptor = hM2 receptor (Homo sapiens, UniProt P08172); test: Calcium mobilization assay, CHO cells stably expressing hM2-Gqi5; assay type: cell-based
Text: (§1) Chinese hamster ovary (CHO-K1) cells stably expressing rat (r)M1 were purchased from the American Type Culture Collection and cultured according to their indicated protocol. CHO cells stably expressing human (h)M2, hM3, and hM5 were described previously (Levey et al., 1991); hM1 and hM4 cDNAs were purchased from Missouri S&T cDNA Resource; rM4 cDNA was provided by T. I. Bonner (National Institutes of Health, Bethesda, Md.). hM1, hM4, and rM4 cDNAs were used to stably transfect CHO-K1 cells purchased from the American Type Culture Collection using Lipofectamine2000. […]
(§2) For low throughput measurement of agonist-evoked increases in intracellular calcium, CHO-K1 cells stably expressing muscarinic receptors were plated in 100 μL of growth medium at 5×10^4 (rM1, hM3, and hM5) or 6×10^4 cells per well (rM1 Y381A, hM2, and rM4) in Costar 96-well black-walled, tissue culture (TC)-treated, clear-bottom plates (Fisher). […] For calcium fluorescence measurements, CRCs of compounds (50 μl, 2×) were added 19 s after the beginning of data collection via a Flexstation II (Molecular Devices, Sunnyvale, Calif.). Fluorescence imaging continued for a total of 130 s acquisition time using an excitation wavelength of 488 nm, an emission wavelength of 525 nm, and a cutoff wavelength of 515 nm. […]

hM4 receptor = target: T1, hM4 receptor (Homo sapiens, UniProt P08173); test: Calcium mobilization assay, CHO-K1 cells stably expressing hM4-Gqi5; assay type: cell-based
T1 construct: host or cells: CHO-K1, additionally stably transfected with Gqi5
T1 sequence (P08173 1-479): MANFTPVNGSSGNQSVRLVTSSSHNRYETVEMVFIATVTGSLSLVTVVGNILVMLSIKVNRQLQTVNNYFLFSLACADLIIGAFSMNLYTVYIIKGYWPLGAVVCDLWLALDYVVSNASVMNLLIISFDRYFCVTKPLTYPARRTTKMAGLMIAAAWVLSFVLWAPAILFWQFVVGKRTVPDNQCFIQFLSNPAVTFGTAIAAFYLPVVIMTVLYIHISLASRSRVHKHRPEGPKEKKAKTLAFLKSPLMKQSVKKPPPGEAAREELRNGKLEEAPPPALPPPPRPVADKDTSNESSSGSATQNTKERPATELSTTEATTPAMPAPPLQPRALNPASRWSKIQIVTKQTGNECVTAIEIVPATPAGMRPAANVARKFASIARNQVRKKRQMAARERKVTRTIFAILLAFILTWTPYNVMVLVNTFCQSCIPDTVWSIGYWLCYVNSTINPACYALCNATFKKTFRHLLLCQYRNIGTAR
Text: as §1, §2

Sequence of hM2 receptor (P08172 whole entry): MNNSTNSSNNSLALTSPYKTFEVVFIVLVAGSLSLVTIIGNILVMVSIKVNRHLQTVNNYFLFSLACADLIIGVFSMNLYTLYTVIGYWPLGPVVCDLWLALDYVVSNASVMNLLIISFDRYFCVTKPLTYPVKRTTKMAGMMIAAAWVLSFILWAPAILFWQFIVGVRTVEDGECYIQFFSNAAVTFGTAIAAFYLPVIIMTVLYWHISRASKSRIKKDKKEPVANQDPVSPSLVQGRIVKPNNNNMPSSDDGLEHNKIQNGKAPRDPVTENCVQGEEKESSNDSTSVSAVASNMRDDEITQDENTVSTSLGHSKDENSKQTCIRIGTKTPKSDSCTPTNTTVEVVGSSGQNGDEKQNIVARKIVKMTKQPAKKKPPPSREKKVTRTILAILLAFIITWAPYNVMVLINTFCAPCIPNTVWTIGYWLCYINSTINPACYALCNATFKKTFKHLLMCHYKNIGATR

Row | Compound | EC50 (hM2 receptor) [µM] | EC50 (hM4 receptor) [µM]
1 | CCOC(=O)N1[C@@H]2CC[C@H]1C[C@H](NCCNC(=O)c1ccccc1)C2 [Example 26, ethyl 3-((3-exo)-(2-benzamidoethyl)amino)-8-azabicyclo[3.2.1]octane-8-carboxylate] | > 10 | > 10
2 | CCOC(=O)N1[C@@H]2CC[C@H]1C[C@@H](NCCNC(=O)c1ccccc1)C2 [Example 27, ethyl 3-((3-endo)-(2-benzamidoethyl)amino)-8-azabicyclo[3.2.1]octane-8-carboxylate] | ~3 | ~3
